Experimental data as given in PubChem BioAssay (NCI).
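Following 48 hours of exposure in 96-well plates, responses at five concentrations were used to interpolate endpoints linearly. At the GI50, growth is halved. Definition used: TGI = concentration required for complete inhibition of growth.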

Tests used:
Assay in all cases: inhibition of tumour cell growth, NCI panel, 48 h
[1] = system: HOP-92 NSCLC
[2] = system: SR leukemia
[3] = system: MALME-3M melanoma
[4] = system: SNB-75 CNS
[5] = system: UO-31 renal
[6] = system: SK-MEL-2 melanoma
[7] = system: 786-0 renal
[8] = system: ACHN renal
[9] = system: U251 CNS
[10] = system: BT-549 breast
[11] = system: CAKI-1 renal
[12] = system: HCT-15 colon
[13] = system: HOP-62 NSCLC
[14] = system: MOLT-4 leukemia
[15] = system: CCRF-CEM leukemia
[16] = system: HL-60(TB) leukemia
[17] = system: SF-295 CNS
[18] = system: TK-10 renal
[19] = system: MDA-MB-435
[20] = system: SF-268 CNS
[21] = system: HCT-116 colon
[22] = system: A498 renal
[23] = system: IGROV1 ovarian
[24] = system: SK-MEL-5 melanoma
[25] = system: PC-3 prostate
[26] = system: COLO 205 colon
[27] = system: SNB-19 CNS
[28] = system: RXF 393 renal
[29] = system: SW-620 colon
[30] = system: SK-OV-3 ovarian
[31] = system: SF-539 CNS
[32] = system: M14 melanoma
[33] = system: HCC-2998 colon
[34] = system: SN12C renal
[35] = system: HS 578T breast
[36] = system: MDA-MB-231 breast
[37] = system: RPMI-8226 leukemia
[38] = system: T-47D breast
[39] = system: UACC-257 melanoma
[40] = system: NCI-H460 lung
[41] = system: NCI-H23 lung
[42] = system: K-562 leukemia
[43] = system: NCI-H226 lung
[44] = system: OVCAR-5 ovarian
[45] = system: EKVX NSCLC
[46] = system: LOX IMVI melanoma
[47] = system: OVCAR-8 ovarian
[48] = system: OVCAR-3 ovarian
[49] = system: DU-145 prostate
[50] = system: KM12 colon
[51] = system: NCI-H522 lung
[52] = system: MCF7 breast
[53] = system: A549 NSCLC
[54] = system: UACC-62 melanoma
[55] = system: OVCAR-4 ovarian
[56] = system: HT29 colon
[57] = system: NCI/ADR-RES ovarian

COc1ccc(NC([Se])=NC23CC4CC(CC(C4)C2)C3)cc1
GI50 [1]: 2.34 µM
TGI [1]: 14.2 µM
GI50 [2]: 1.67 µM
TGI [2]: > 100 µM
GI50 [3]: 0.653 µM
TGI [3]: 3.74 µM
GI50 [4]: 1.54 µM
TGI [4]: 4.5 µM
GI50 [5]: 1.74 µM
TGI [5]: 4.11 µM
GI50 [6]: 2.27 µM
TGI [6]: 7.33 µM
GI50 [7]: 1.78 µM
TGI [7]: 4.22 µM
GI50 [8]: 1.99 µM
TGI [8]: 4.71 µM
GI50 [9]: 1.27 µM
TGI [9]: 4.91 µM
GI50 [10]: 0.874 µM
TGI [10]: 2.32 µM
GI50 [11]: 2.57 µM
TGI [11]: 10.2 µM
GI50 [12]: 1.57 µM
TGI [12]: 11.1 µM
GI50 [13]: 2.24 µM
TGI [13]: 9.49 µM
GI50 [14]: 0.611 µM
TGI [14]: 5.12 µM
GI50 [15]: 0.705 µM
TGI [15]: 4.97 µM
GI50 [16]: 2.15 µM
TGI [16]: 5.91 µM
GI50 [17]: 1.52 µM
TGI [17]: 4.15 µM
GI50 [18]: 2.1 µM
TGI [18]: 5.52 µM
GI50 [19]: 2.84 µM
TGI [19]: 19.5 µM
GI50 [20]: 3.55 µM
TGI [20]: > 100 µM
GI50 [21]: 1.28 µM
TGI [21]: 2.78 µM
GI50 [22]: 1.32 µM
TGI [22]: 4.75 µM
GI50 [23]: 1.64 µM
TGI [23]: 7.7 µM
GI50 [24]: 0.558 µM
TGI [24]: 1.79 µM
GI50 [25]: 0.696 µM
TGI [25]: 32.2 µM
GI50 [26]: 1.66 µM
TGI [26]: 3.95 µM
GI50 [27]: 1.86 µM
TGI [27]: 50.6 µM
GI50 [28]: 1.8 µM
TGI [28]: 4.72 µM
GI50 [29]: 1.51 µM
TGI [29]: 6.45 µM
GI50 [30]: 2.45 µM
TGI [30]: 7.43 µM
GI50 [31]: 1.89 µM
TGI [31]: 4.19 µM
GI50 [32]: 1.37 µM
TGI [32]: 3.29 µM
GI50 [33]: 2.86 µM
TGI [33]: 8.5 µM
GI50 [34]: 1.61 µM
TGI [34]: 8.81 µM
GI50 [35]: 2.08 µM
TGI [35]: 7.89 µM
GI50 [36]: 1.79 µM
TGI [36]: 3.91 µM
GI50 [37]: 0.845 µM
TGI [37]: 3.8 µM
GI50 [38]: 1.88 µM
TGI [38]: 4.89 µM
GI50 [39]: 2.03 µM
TGI [39]: 5.44 µM
GI50 [40]: 1.98 µM
TGI [40]: 10.7 µM
GI50 [41]: 0.456 µM
TGI [41]: 3 µM
GI50 [42]: 0.542 µM
TGI [42]: 18.8 µM
GI50 [43]: 1.25 µM
TGI [43]: 5.26 µM
GI50 [44]: 1.7 µM
TGI [44]: 4.68 µM
GI50 [45]: 1.97 µM
TGI [45]: 4.74 µM
GI50 [46]: 1.91 µM
TGI [46]: 5.09 µM
GI50 [47]: 0.645 µM
TGI [47]: 3.71 µM
GI50 [48]: 1.39 µM
TGI [48]: 3.21 µM
GI50 [49]: 3.13 µM
TGI [49]: 11.2 µM
GI50 [50]: 1.85 µM
TGI [50]: 5.54 µM
GI50 [51]: 1.23 µM
TGI [51]: 4.35 µM
GI50 [52]: 1.57 µM
TGI [52]: 9.4 µM
GI50 [53]: 2.38 µM
TGI [53]: 7.78 µM
GI50 [54]: 1.43 µM
TGI [54]: 4.96 µM
GI50 [55]: 0.42 µM
TGI [55]: 3.46 µM
GI50 [56]: 2.64 µM
TGI [56]: 15 µM
GI50 [57]: 0.711 µM
TGI [57]: 8.88 µM
